Source: the supplement of paper PMC10883282

Legend:
Assay in all cases: relative viability vs DMSO control (72 h) (fraction); higher = more viable cells
A204 = system: A204
Summary of the method: (§1)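 Sarcoma cell lines went into 384-well plates at densities chosen to reach 80–90% confluence. After 24 h, each well received 2.5 µl of serially diluted compound, with source plates running from 10 mM to 0.0002 mM, and the plates were kept 72 h at 37 °C, 5% CO2, alongside 0.1% DMSO vehicle and a 5 µM positive control. Relative viability was derived from ATPLite readings as percent growth and averaged over up to triplicate wells. The data were then rescaled so that 1 stands for full and 0 for none.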

HS729 = system: HS729
Summary of the method: as §1

KHOS-240S = system: KHOS-240S
Summary of the method: as §1

SW982 = system: SW982
Summary of the method: as §1

SYO-1 = system: SYO-1
Summary of the method: as §1

CC#CC(=O)N1CCC[C@H]1c1nc(-c2ccc(C(=O)Nc3ccccn3)cc2)c2c(N)nccn12 [Acalabrutinib]
relative viability
Details	A204	HS729	KHOS-240S	SW982	SYO-1
0.00017 µM	1.07	0.88	1.06	1.048	0.958
0.00051 µM	1.07	0.865	1.06	1.037	0.946
0.00152 µM	1.06	0.903	1.07	1.05	0.941
0.00457 µM	1.09	0.941	1.09	1.05	0.937
0.01372 µM	1.1	0.866	1.06	1.05	0.945
0.04115 µM	1.09	0.877	1.06	1.034	0.932
0.1235 µM	1.07	0.894	1.03	1.02	0.94
0.3704 µM	1.05	0.868	1.04	1.02	0.934
1.111 µM	1.05	0.889	1.041	1.02	0.928
3.333 µM	1.02	0.88	1.04	1.01	0.948
10 µM	0.872	0.95	1.05	0.955	0.898

N#CC1(c2ccc(NC(=O)c3cccnc3NCc3ccncc3)cc2)CCCC1 [Apatinib]
relative viability
Details	A204	HS729	KHOS-240S	SW982	SYO-1
0.00017 µM	1.03	1.06	1.04	0.96	1.01
0.00051 µM	1.03	1.0262	1.06	0.978	1.03
0.00152 µM	1.05	1.066	1.05	0.994	1.01
0.00457 µM	1.07	1.04	1.04	0.9695	1.02
0.01372 µM	1.02	0.997	1.04	0.99	1.01
0.04115 µM	1.01	1.03	1.05	1.009	1.02
0.1235 µM	0.992	1.04	1.03	1	0.957
0.3704 µM	0.811	0.963	0.991	0.958	0.91
1.111 µM	0.482	0.906	0.97	0.979	0.747
3.333 µM	0.362	0.865	0.956	0.975	0.678
10 µM	0.342	0.745	0.873	0.999	0.552

O=C(Nc1ccc(OC(F)(F)Cl)cc1)c1cnc(N2CC[C@@H](O)C2)c(-c2cc[nH]n2)c1 [Asciminib]
relative viability
Details	A204	HS729	KHOS-240S	SW982	SYO-1
0.00017 µM	1.02	0.939	1.04	0.974	0.92
0.00051 µM	1.04	0.932	1.01	0.978	0.91
0.00152 µM	1.05	0.93	1.02	1	0.919
0.00457 µM	1.04	0.915	1.02	0.975	0.927
0.01372 µM	1.04	0.916	1.03	1.01	0.904
0.04115 µM	1.05	0.893	1.009	1.01	0.893
0.1235 µM	1.06	0.928	0.9965	1.01	0.866
0.3704 µM	1.06	0.901	1.04	1.04	0.844
1.111 µM	1.04	0.903	1.03	1.05	0.813
3.333 µM	0.799	0.954	0.977	1.01	0.76
10 µM	0.449	0.829	0.632	0.858	0.6731
